# Legend:
# [1] = tested on: TNF-α secretion of keratinocytes which are treated with TPA; experiment: TNF-α secretion by TPA-treated immortalized human keratinocytes (ELISA of supernatant); format: cell-based; conditions: for % of the control: control: TPA without piperonal
# Procedure: These keratinocytes (cf. WO97/23602) are treated in this connection with inflammation-promoting substances, more specifically with a known skin irritant in the form of a phorbol ester (12-O-tetradecanoylphorbol acetate, abbreviated to TPA), and as a response to this treatment they display a typical inflammatory metabolic reaction, in particular an increase in the secretion of the inflammation-promoting cytokine TNF-α (tumour necrosis factor alpha).
# A substance which inhibits the secretion of TNF-α in the case of TPA-treated keratinocytes in the above model in a dose-dependent manner is regarded as a potentially anti-inflammatory substance.
# (§1) Specifically, the test is carried out by subjecting in vitro human keratinocytes, immortalized in culture, to an inflammation-promoting treatment using the abovementioned 12-O-tetradecanoylphorbol 13-acetate (TPA). The immortalized keratinocyte cell lines used are the cell lines DK2, FK2 or else DK7, which are described in the published International Patent Application WO 97/23602. The cell lines FK2 and DK2 were deposited on 5 October 1995 in accordance with the Budapest Treaty at the DSM depository (Deutsche Sammlung für Mikroorganismen und Zellkulturen GmbH, Mascheroder Weg 1b, D-38124 Braunschweig, Germany) and were given the deposit names DSM ACC2240 and DSM ACC2238. The cell line DK7-NR was deposited on 19 March 1998 at the Pasteur Institute, Paris (CNCM) under the number
# I-1996. It is also possible to use an immortalized keratinocyte line HaCaT, which is described by Boukamp et al. in J. Cell. Biol., 106, 761-771, 1988).
# Petri dishes (6 cm diameter), which contain 4 ml of the serum-free nutrient medium NR-2 (cf. WO97/23602; Biofluids), were inoculated with the abovementioned immortalized keratinocyte cell lines. As soon as confluence of the cell lawn was observed, the nutrient medium was replaced by a fresh, calcium-enriched nutrient medium NR-2 (1.5 mM CaCl2). The dishes were incubated for 2 days, the nutrient medium was replaced by fresh nutrient medium and the dishes were incubated for a further 2 days. […] In parallel, an identical batch without piperonal additive was prepared.
# (§2) During the last 24 h of the above mentioned incubation, TPA in ethanol or a corresponding amount of ethanol was added in an amount of 10 ng/ml. The supernatants were then isolated and, by means of a known ELISA assay (Ruwag AG, Zurich, Switzerland) using specific antibodies to TNF-α (BioSource Inter., US, catalogue numbers KHC0012 and KHC3013), the concentration of TNF-α in the supernatant was determined.
# keratinocytes = experiment: Cytotoxic activity on the keratinocytes; conditions: concentrations used in the experiments (0.01-0.1%)
# [2] = tested on: TNF-α secretion of keratinocytes; experiment: Control experiments without TPA: TNF-α secretion by immortalized human keratinocytes (ELISA of supernatant); format: cell-based
# Procedure: as §1
# Petri dishes (6 cm diameter), which contain 4 ml of the serum-free nutrient medium NR-2 (cf. WO97/23602; Biofluids), were inoculated with the abovementioned immortalized keratinocyte cell lines. As soon as confluence of the cell lawn was observed, the nutrient medium was replaced by a fresh, calcium-enriched nutrient medium NR-2 (1.5 mM CaCl2). The dishes were incubated for 2 days, the nutrient medium was replaced by fresh nutrient medium and the dishes were incubated for a further 2 days.
# as §2
# [3] = TPA + hydrocortisone (concentration not given)
SMILES,Amount of TNF-α determined ([1]; TPA 10 ng/ml + hydrocortisone (concentration not given)),"% inhibition [1, 3]","% of the control [1, 3]",cytotoxic activity (keratinocytes),Amount of TNF-α determined ([2]; No TPA + 0.01% of piperonal),Amount of TNF-α determined ([2]; No TPA + 0.05% of piperonal),Amount of TNF-α determined ([2]; No TPA + 0.1% of piperonal),Amount of TNF-α determined ([1]; TPA 10 ng/ml + 0.01% of piperonal),Amount of TNF-α determined ([1]; TPA 10 ng/ml + 0.05% of piperonal),Amount of TNF-α determined ([1]; TPA 10 ng/ml + 0.1% of piperonal),% of the control ([1]; TPA + 0.01% of piperonal),% inhibition ([1]; TPA + 0.05% of piperonal),% of the control ([1]; TPA + 0.05% of piperonal),% inhibition ([1]; TPA + 0.1% of piperonal),% of the control ([1]; TPA + 0.1% of piperonal)
"C[C@]12CCC(=O)C=C1CC[C@@H]1[C@@H]2[C@@H](O)C[C@@]2(C)[C@H]1CC[C@]2(O)C(=O)CO [hydrocortisone, reference compound]",220.4 pg/mL,26.4%,73.6%,,,,,,,,,,,,
"O=Cc1ccc2c(c1)OCO2 [piperonal, 3,4-(methylenedioxy)benzaldehyde]",,,,does not exhibit cytotoxic activity,7.9 pg/mL,8.9 pg/mL,6.3 pg/mL,331.2 pg/mL,78.1 pg/mL,100.6 pg/mL,110.6%,73.9%,26.1%,66.4%,33.6%

# Source: patent publication EP0997137B1 (Société des Produits Nestlé S.A., priority 1998, dated 2000)
